Where “and” joins values, the source holds several entries; their conditions need not be identical. Equal values may be shown once.
What was measured:
[1] = system: urethane-anesthetized female rats; experiment: Leak point pressure by abdominal wall-electrically stimulating method, serotonin 5-HT receptor agonists (Example 3); type: in vivo, rat; details: for leak point pressure after drug administration / leak point pressure increase / leak point pressure before drug administration: i.v., mean ± SEM; for leak point pressure before drug administration: baseline; for effect on leak point pressure: intravenous administration
Description: SD female rats (body weight 180-350 g) were anesthetized with urethane (Wako Pure Chemical Industries, Ltd.), and the spinal cord was transected at T8-9 level to eliminate the reflex voiding. In addition, the nerve to the iliococcygeus muscle/pubococcygeus muscle on the one side was transected. During operation, halothane (Takeda Pharmaceutical Company Limited) anesthesia was added when necessary. A catheter (PE-90, Clay Adams) was inserted into the bladder and secured with a ligature, and the incised part of each of the abdominal muscle and skin was closed with sutures. The abdominal skin near the diaphragm was incised at two left and right positions to newly expose the abdominal muscle. An Evans Blue dye (Merck) solution was injected into the bladder, and the bladder volume was adjusted to 0.2-0.3 ml. The bladder catheter was connected to a pressure transducer, and the signals of the transducer were sent to a computer via an amplifier (blood pressure amplification unit AP-641G; NIHON KOHDEN) and an analog-to-digital converter (BIOPAC; MP100), and recorded on a hard disc. The data were analyzed on a computer using software (BIOPAC; AcqKnowledge). The exposed abdominal muscle was electrostimulated using an electrostimulator (SEN-3301; NIHON KODEN) and an isolator (SS-202J; NIHON KODEN), and the presence or absence of incontinence from the meatus urethra was observed. The electrostimulation was applied at a voltage of 2.5-50 V, duration of 0.5 milisec, and frequency 50 Hz for 1 sec, thereby gradually increasing the intravesical pressure. The peak intravesical pressure during stimulation of the abdominal wall was measured and, of the trials with observed incontinence, the lowest peak intravesical pressure was defined as the leak point pressure. Serotonin 5-HT receptor agonist, WAY-161503 (5-HT2C receptor agonist), WAY-163909 (5-HT2C receptor agonist), DOI (5-HT2A/2B/2C receptor agonist), mCPP (5-HT2B/2C receptor partial agonist), eltoprazine (5-HT1A/1B/2C receptor partial agonist), 8-OH-DPAT (5-HT1A receptor agonist), sumatryptan (5-HT1B/1D receptor agonist) and BW723C86 (5-HT2B receptor agonist) were intravenously administered, and the leak point pressure was compared before and after the administration. DOI, mCPP and eltoprazine were dissolved in saline, and other drugs were dissolved in DMA/PEG400 (1:1), and they were intravenously administered at 1 ml/kg and 0.5 mg/kg, respectively. Depending on the experiment, RS-102221 (serotonin 5-HT2C receptor antagonist) or SB221284 (serotonin 5-HT2B/2C receptor antagonist) was intravenously administered 5 min before WAY-161503 or WAY-163909 administration, and an antagonistic effect against the WAY-161503 or WAY-163909-induced increment of the leak point pressure was examined. RS-102221 and SB221284 were both dissolved in DMA/PEG400 (1:1) and intravenously administered at 0.5 ml/kg.

[2] = system: urethane-anesthetized female rats; experiment: Leak point pressure by direct compressing of the bladder (Example 4); type: in vivo, rat; details: for leak point pressure after drug administration / leak point pressure increase / leak point pressure before drug administration: i.v., mean ± SEM; for leak point pressure after drug administration: 20 min later; for leak point pressure before drug administration: baseline; for effect on leak point pressure: intravenous administration
Description: SD female rats (body weight 180-350 g) were anesthetized with urethane (Wako Pure Chemical Industries, Ltd.), and halothane (Takeda Pharmaceutical Company Limited) anesthesia was added when necessary during operation.
The spinal cord was transected at T8-9 level to eliminate the reflex voiding. The lower abdomen was incised in the median line, a catheter for intravesical pressure measurement (PE-90, Clay Adams) was inserted into the bladder and secured with a ligature, and the intravesical pressure was measured via a pressure transducer. Urine was emptized in advance by bilaterally pressing the bladder with two swabs, and a 0.1% Evans blue (Merck) solution (0.4 mL) was injected into the bladder. The bladder was gradually compressed bilaterally with two swabs, and the intravesical pressure upon saline leakage from the urethral orifice was measured and defined as a leak point pressure. The measurement of the leak point pressure was repeated, and the average value of the final five stable measures was taken as the value before drug administration. Thereafter, the drug was intravenously administered, the leak point pressure was measured again 20 min later, and the value after the drug administration was determined. DOI, mCPP and eltoprazine were dissolved in saline, and other drugs were dissolved in DMA/PEG400 (1:1), and intravenously administered at 1 ml/kg and 0.5 mg/kg, respectively. Depending on the experiment, RS-102221 or SB221284 (showing serotonin 5-HT2C receptor antagonist activity) was administered, 5 min later, WAY-161503 or WAY-163909 was administered, leak point pressure was measured 10 min later, and a competitive assay with the action of WAY-161503 or WAY-163909 was performed. RS-102221 and SB221284 were both dissolved in DMA/PEG400 (1:1), and intravenously administered at 0.5 ml/kg.

CC(N)Cc1c[nH]c2ccc(OCc3cccs3)cc12 (stereo not shown) [BW723C86]
leak point pressure after drug administration ([1]; 3 mg/kg): 48.9 ± 4.6 cmH2O | leak point pressure increase ([1]; 3 mg/kg): 2.5 ± 3.5 cmH2O | leak point pressure after drug administration ([1]; 10 mg/kg): 48.6 ± 3.2 cmH2O | leak point pressure increase ([1]; 10 mg/kg): −0.7 ± 3.9 cmH2O | leak point pressure before drug administration ([1]; dose group 3 mg/kg): 46.4 ± 5.6 cmH2O | leak point pressure before drug administration ([1]; dose group 10 mg/kg): 49.3 ± 6.5 cmH2O | effect on leak point pressure [1]: showed no effect

c1cc2c3c(c1)[C@@H]1CCC[C@@H]1N3CCNC2 [WAY-163907]
leak point pressure after drug administration ([1]; 3 mg/kg): 47.4 ± 4.8 cmH2O | leak point pressure increase ([1]; 3 mg/kg): −4.8 ± 2.6 cmH2O | leak point pressure before drug administration ([1]; dose group 3 mg/kg): 52.2 ± 3.4 cmH2O | effect on leak point pressure [1]: showed no effect | leak point pressure after drug administration ([2]; 3 mg/kg): 57.0 ± 5.1 cmH2O | leak point pressure increase ([2]; 3 mg/kg): 1.9 ± 0.5 cmH2O | leak point pressure before drug administration ([2]; dose group 3 mg/kg): 55.1 ± 4.7 cmH2O | effect on leak point pressure [2]: showed no effect

COc1cc(CC(C)N)c(OC)cc1I (stereo not shown) [DOI]
leak point pressure after drug administration ([1]; 0.01 mg/kg): 39.7 ± 5.2 cmH2O | leak point pressure increase ([1]; 0.01 mg/kg): 3.2 ± 3.3 cmH2O | leak point pressure after drug administration ([1]; 0.03 mg/kg): 50.1 ± 7.1 cmH2O | leak point pressure increase ([1]; 0.03 mg/kg): 5.9 ± 1.9 cmH2O | leak point pressure after drug administration ([1]; 0.1 mg/kg): 63.2 ± 5.7 cmH2O | leak point pressure increase ([1]; 0.1 mg/kg): 18.7 ± 2.9 cmH2O | leak point pressure after drug administration ([1]; 0.3 mg/kg): 67.9 ± 11.5 cmH2O | leak point pressure increase ([1]; 0.3 mg/kg): 27.2 ± 3.9 cmH2O | leak point pressure before drug administration ([1]; dose group 0.01 mg/kg): 36.4 ± 7.6 cmH2O | leak point pressure before drug administration ([1]; dose group 0.03 mg/kg): 44.2 ± 7.2 cmH2O | leak point pressure before drug administration ([1]; dose group 0.1 mg/kg): 44.5 ± 5.8 cmH2O | leak point pressure before drug administration ([1]; dose group 0.3 mg/kg): 40.7 ± 8.7 cmH2O | effect on leak point pressure [1]: increased the leak point pressure significantly | leak point pressure after drug administration ([2]; 0.01 mg/kg): 68.5 ± 5.7 cmH2O | leak point pressure increase ([2]; 0.01 mg/kg): 2.9 ± 2.0 cmH2O | leak point pressure after drug administration ([2]; 0.03 mg/kg): 71.1 ± 6.7 cmH2O | leak point pressure increase ([2]; 0.03 mg/kg): 6.2 ± 2.9 cmH2O | leak point pressure after drug administration ([2]; 0.1 mg/kg): 79.5 ± 2.6 cmH2O | leak point pressure increase ([2]; 0.1 mg/kg): 14.3 ± 2.8 cmH2O | leak point pressure after drug administration ([2]; 0.3 mg/kg): 85.7 ± 6.0 cmH2O | leak point pressure increase ([2]; 0.3 mg/kg): 18.7 ± 2.9 cmH2O | leak point pressure after drug administration ([2]; 1 mg/kg): 82.9 ± 3.6 cmH2O | leak point pressure increase ([2]; 1 mg/kg): 22.6 ± 2.5 cmH2O | leak point pressure before drug administration ([2]; dose group 0.01 mg/kg): 65.7 ± 6.3 cmH2O | leak point pressure before drug administration ([2]; dose group 0.03 mg/kg): 64.9 ± 5.4 cmH2O | leak point pressure before drug administration ([2]; dose group 0.1 mg/kg): 65.2 ± 3.6 cmH2O | leak point pressure before drug administration ([2]; dose group 0.3 mg/kg): 67.0 ± 4.3 cmH2O | leak point pressure before drug administration ([2]; dose group 1 mg/kg): 60.3 ± 3.5 cmH2O | effect on leak point pressure [2]: increased the leak point pressure significantly

CNS(=O)(=O)Cc1ccc2[nH]cc(CCN(C)C)c2c1 [sumatryptan]
leak point pressure after drug administration ([1]; 1 mg/kg): 42.2 ± 2.0 cmH2O and 44.9 ± 9.1 cmH2O | leak point pressure after drug administration ([1]; 3 mg/kg): 54.4 ± 7.5 cmH2O | leak point pressure increase ([1]; 3 mg/kg): 1.5 ± 2.6 cmH2O | leak point pressure before drug administration ([1]; dose group 1 mg/kg): 44.2 ± 2.6 cmH2O and 43.2 ± 8.3 cmH2O | leak point pressure before drug administration ([1]; dose group 3 mg/kg): 52.9 ± 7.8 cmH2O | effect on leak point pressure [1]: showed no effect

Clc1cccc(N2CCNCC2)c1 [mCPP]
leak point pressure after drug administration ([1]; 0.01 mg/kg): 49.1 ± 6.4 cmH2O | leak point pressure increase ([1]; 0.01 mg/kg): 2.8 ± 2.1 cmH2O | leak point pressure after drug administration ([1]; 0.03 mg/kg): 52.3 ± 4.3 cmH2O | leak point pressure increase ([1]; 0.03 mg/kg): 14.6 ± 2.7 cmH2O | leak point pressure after drug administration ([1]; 0.1 mg/kg): 59.7 ± 6.6 cmH2O | leak point pressure increase ([1]; 0.1 mg/kg): 13.2 ± 2.8 cmH2O | leak point pressure before drug administration ([1]; dose group 0.01 mg/kg): 46.3 ± 5.8 cmH2O | leak point pressure before drug administration ([1]; dose group 0.03 mg/kg): 37.7 ± 4.0 cmH2O | leak point pressure before drug administration ([1]; dose group 0.1 mg/kg): 46.5 ± 6.1 cmH2O | effect on leak point pressure [1]: increased the leak point pressure significantly | leak point pressure after drug administration ([2]; 0.003 mg/kg): 67.0 ± 5.3 cmH2O | leak point pressure increase ([2]; 0.003 mg/kg): 4.1 ± 2.1 cmH2O | leak point pressure after drug administration ([2]; 0.01 mg/kg): 69.3 ± 3.4 cmH2O | leak point pressure increase ([2]; 0.01 mg/kg): 6.3 ± 2.3 cmH2O | leak point pressure after drug administration ([2]; 0.03 mg/kg): 73.8 ± 7.1 cmH2O | leak point pressure increase ([2]; 0.03 mg/kg): 11.6 ± 3.1 cmH2O | leak point pressure after drug administration ([2]; 0.1 mg/kg): 76.7 ± 4.0 cmH2O | leak point pressure increase ([2]; 0.1 mg/kg): 13.6 ± 2.5 cmH2O | leak point pressure after drug administration ([2]; 0.3 mg/kg): 71.1 ± 7.1 cmH2O | leak point pressure increase ([2]; 0.3 mg/kg): 5.4 ± 2.2 cmH2O | leak point pressure before drug administration ([2]; dose group 0.003 mg/kg): 62.9 ± 5.0 cmH2O | leak point pressure before drug administration ([2]; dose group 0.01 mg/kg): 63.0 ± 2.7 cmH2O | leak point pressure before drug administration ([2]; dose group 0.03 mg/kg): 62.2 ± 4.4 cmH2O | leak point pressure before drug administration ([2]; dose group 0.1 mg/kg): 63.1 ± 3.9 cmH2O | leak point pressure before drug administration ([2]; dose group 0.3 mg/kg): 65.7 ± 7.8 cmH2O | effect on leak point pressure [2]: increased the leak point pressure significantly

CCCN(CCC)C1CCc2cccc(O)c2C1 (stereo not shown) [8OH-DPAT]
leak point pressure after drug administration ([1]; 0.3 mg/kg): 47.1 ± 9.4 cmH2O | leak point pressure increase ([1]; 0.3 mg/kg): −1.5 ± 1.2 cmH2O | leak point pressure before drug administration ([1]; dose group 0.3 mg/kg): 48.5 ± 9.6 cmH2O | effect on leak point pressure [1]: showed no effect

c1cc2c(c(N3CCNCC3)c1)OCCO2 [eltoprazine]
leak point pressure after drug administration ([1]; 1 mg/kg): 55.2 ± 4.5 cmH2O | leak point pressure increase ([1]; 1 mg/kg): 6.1 ± 1.7 cmH2O | leak point pressure after drug administration ([1]; 3 mg/kg): 63.2 ± 5.6 cmH2O | leak point pressure increase ([1]; 3 mg/kg): 15.8 ± 3.1 cmH2O | leak point pressure before drug administration ([1]; dose group 1 mg/kg): 49.2 ± 5.2 cmH2O | leak point pressure before drug administration ([1]; dose group 3 mg/kg): 47.4 ± 5.5 cmH2O | effect on leak point pressure [1]: increased the leak point pressure significantly | leak point pressure after drug administration ([2]; 1 mg/kg): 76.7 ± 4.7 cmH2O | leak point pressure increase ([2]; 1 mg/kg): 8.0 ± 2.8 cmH2O | leak point pressure after drug administration ([2]; 3 mg/kg): 74.6 ± 2.3 cmH2O | leak point pressure increase ([2]; 3 mg/kg): 13.5 ± 1.0 cmH2O | leak point pressure before drug administration ([2]; dose group 1 mg/kg): 68.6 ± 6.1 cmH2O | leak point pressure before drug administration ([2]; dose group 3 mg/kg): 61.1 ± 2.4 cmH2O | effect on leak point pressure [2]: increased the leak point pressure significantly
